Source: article PMC5114172 (Journal of applied toxicology : JAT, 2016)

Tested on: MD-PBMCs
Experiment: IL-1β secretion
Assay type: cell-based, human

CCC[CH2][Sn][CH2]CCC [DBT, Dibutyltin]
Interleukin 1 beta secreted (donor F240, 24 h, 0.05 μM DBT, no inhibitor (CI experiment)): 757 ± 17 pg/mL
Interleukin 1 beta secreted (donor F240, 24 h, 0.05 μM DBT, no inhibitor (U0126 experiment)): 772 ± 54 pg/mL
Interleukin 1 beta secreted (donor F240, 24 h, 0.1 μM DBT + Caspase-1 inhibitor II 50 μM): 467 ± 12 pg/mL
Interleukin 1 beta secreted (donor F240, 24 h, 0.1 μM DBT + U0126 50 μM): 1447 ± 142 pg/mL
fold increase in IL-1β secretion (donor F240, 24 h, 0.1 μM DBT, absence of MEK inhibitor): 1.6 fold
Interleukin 1 beta secreted (donor F240, 24 h, 0.1 μM DBT, no inhibitor (CI experiment)): 916 ± 67 pg/mL
Interleukin 1 beta secreted (donor F240, 24 h, 0.1 μM DBT, no inhibitor (U0126 experiment)): 812 ± 109 pg/mL
fold increase in IL-1β secretion (donor F240, 24 h, 0.05 and 0.1 μM DBT, U0126 50 μM present): no DBT-induced increases
Interleukin 1 beta secreted (donor F242, 24 h, 0.05 μM DBT + Caspase-1 inhibitor II 50 μM): 495 ± 25 pg/mL
Interleukin 1 beta secreted (donor F242, 24 h, 0.05 μM DBT + U0126 50 μM): 759 ± 10 pg/mL
Interleukin 1 beta secreted (donor F242, 24 h, 0.05 μM DBT, no inhibitor (CI experiment)): 2752 ± 49 pg/mL
Interleukin 1 beta secreted (donor F242, 24 h, 0.05 μM DBT, no inhibitor (U0126 experiment)): 2230 ± 89 pg/mL
Interleukin 1 beta secreted (donor F242, 24 h, 0.1 μM DBT + Caspase-1 inhibitor II 50 μM): 354 ± 43 pg/mL
Interleukin 1 beta secreted (donor F242, 24 h, 0.1 μM DBT + U0126 50 μM): 312 ± 27 pg/mL
Interleukin 1 beta secreted (donor F242, 24 h, 0.1 μM DBT, no inhibitor (CI experiment)): 2874 ± 77 pg/mL
Interleukin 1 beta secreted (donor F242, 24 h, 0.1 μM DBT, no inhibitor (U0126 experiment)): 2172 ± 25 pg/mL
Interleukin 1 beta secreted (donor F244, 24 h, 0.05 μM DBT + BAY 11-7085): 1107 ± 14 pg/mL
Interleukin 1 beta secreted (donor F244, 24 h, 0.05 μM DBT + Caspase-1 inhibitor II 50 μM): 334 ± 11 pg/mL
Interleukin 1 beta secreted (donor F244, 24 h, 0.05 μM DBT + U0126 50 μM): 61 ± 23 pg/mL
fold increase in IL-1β secretion (donor F244, 24 h, 0.05 μM DBT, BAY 11-7085 present): 1.3 fold
fold increase in IL-1β secretion (donor F244, 24 h, 0.05 μM DBT, absence of NFκB inhibitor): 1.2 fold
Interleukin 1 beta secreted (donor F244, 24 h, 0.05 μM DBT, no inhibitor (BAY experiment)): 947 ± 29 pg/mL
Interleukin 1 beta secreted (donor F244, 24 h, 0.05 μM DBT, no inhibitor (CI experiment)): 1291 ± 34 pg/mL
Interleukin 1 beta secreted (donor F244, 24 h, 0.05 μM DBT, no inhibitor (U0126 experiment)): 1764 ± 62 pg/mL
Interleukin 1 beta secreted (donor F244, 24 h, 0.1 μM DBT + BAY 11-7085): 1067 ± 19 pg/mL
Interleukin 1 beta secreted (donor F244, 24 h, 0.1 μM DBT + Caspase-1 inhibitor II 50 μM): 302 ± 3 pg/mL
Interleukin 1 beta secreted (donor F244, 24 h, 0.1 μM DBT + U0126 50 μM): 143 ± 50 pg/mL
fold increase in IL-1β secretion (donor F244, 24 h, 0.1 μM DBT, BAY 11-7085 present): 1.3 fold
fold increase in IL-1β secretion (donor F244, 24 h, 0.1 μM DBT, absence of NFκB inhibitor): 1.3 fold
Interleukin 1 beta secreted (donor F244, 24 h, 0.1 μM DBT, no inhibitor (BAY experiment)): 1029 ± 59 pg/mL
Interleukin 1 beta secreted (donor F244, 24 h, 0.1 μM DBT, no inhibitor (CI experiment)): 1444 ± 43 pg/mL
Interleukin 1 beta secreted (donor F244, 24 h, 0.1 μM DBT, no inhibitor (U0126 experiment)): 2001 ± 184 pg/mL
Interleukin 1 beta secreted (donor F245, 24 h, 0.05 μM DBT + BAY 11-7085): 630 ± 60 pg/mL
Interleukin 1 beta secreted (donor F245, 24 h, 0.05 μM DBT + Caspase-1 inhibitor II 50 μM): 216 ± 19 pg/mL
Interleukin 1 beta secreted (donor F245, 24 h, 0.05 μM DBT + U0126 50 μM): 277 ± 8 pg/mL
fold increase in IL-1β secretion (donor F245, 24 h, 0.05 μM DBT, Caspase-1 inhibitor II 50 μM present): 1.4 fold
fold increase in IL-1β secretion (donor F245, 24 h, 0.05 μM DBT, absence of Caspase-1 inhibitor): 1.8 fold
Interleukin 1 beta secreted (donor F245, 24 h, 0.05 μM DBT, no inhibitor (BAY experiment)): 883 ± 66 pg/mL
Interleukin 1 beta secreted (donor F245, 24 h, 0.05 μM DBT, no inhibitor (CI experiment)): 1399 ± 20 pg/mL
Interleukin 1 beta secreted (donor F245, 24 h, 0.05 μM DBT, no inhibitor (U0126 experiment)): 1174 ± 49 pg/mL
Interleukin 1 beta secreted (donor F245, 24 h, 0.1 μM DBT + BAY 11-7085): 514 ± 80 pg/mL
Interleukin 1 beta secreted (donor F245, 24 h, 0.1 μM DBT + Caspase-1 inhibitor II 50 μM): 163 ± 10 pg/mL
Interleukin 1 beta secreted (donor F245, 24 h, 0.1 μM DBT + U0126 50 μM): 231 ± 14 pg/mL
fold increase in IL-1β secretion (donor F245, 24 h, 0.1 μM DBT, Caspase-1 inhibitor II 50 μM present): no increase
fold increase in IL-1β secretion (donor F245, 24 h, 0.1 μM DBT, absence of Caspase-1 inhibitor): 1.8 fold
Interleukin 1 beta secreted (donor F245, 24 h, 0.1 μM DBT, no inhibitor (BAY experiment)): 1206 ± 91 pg/mL
Interleukin 1 beta secreted (donor F245, 24 h, 0.1 μM DBT, no inhibitor (CI experiment)): 1375 ± 18 pg/mL
Interleukin 1 beta secreted (donor F245, 24 h, 0.1 μM DBT, no inhibitor (U0126 experiment)): 1246 ± 65 pg/mL
Interleukin 1 beta secreted (donor F247, 24 h, 0.05 μM DBT + SB202190): 1495 ± 134 pg/mL
fold increase in IL-1β secretion (donor F247, 24 h, 0.05 μM DBT, absence of p38 inhibitor): 7.2 fold
Interleukin 1 beta secreted (donor F247, 24 h, 0.05 μM DBT, no inhibitor (SB202190 experiment)): 1378 ± 246 pg/mL
Interleukin 1 beta secreted (donor F247, 24 h, 0.1 μM DBT + SB202190): 1329 ± 99 pg/mL
fold increase in IL-1β secretion (donor F247, 24 h, 0.1 μM DBT, absence of p38 inhibitor): 2.5 fold
Interleukin 1 beta secreted (donor F247, 24 h, 0.1 μM DBT, no inhibitor (SB202190 experiment)): 477 ± 60 pg/mL
fold increase in IL-1β secretion (donor F247, 24 h, 0.05 and 0.1 μM DBT, SB202190 present): no increases
Interleukin 1 beta secreted (donor F254, 24 h, 0.05 μM DBT + Caspase-1 inhibitor II 50 μM): 41 ± 9 pg/mL
Interleukin 1 beta secreted (donor F254, 24 h, 0.05 μM DBT, no inhibitor (CI experiment)): 521 ± 62 pg/mL
Interleukin 1 beta secreted (donor F254, 24 h, 0.1 μM DBT + Caspase-1 inhibitor II 50 μM): 17 ± 16 pg/mL
Interleukin 1 beta secreted (donor F254, 24 h, 0.1 μM DBT, no inhibitor (CI experiment)): 206 ± 2 pg/mL
Interleukin 1 beta secreted (donor F262, 24 h, 0.05 μM DBT + SB202190): 146 ± 8 pg/mL
Interleukin 1 beta secreted (donor F262, 24 h, 0.05 μM DBT, no inhibitor (SB202190 experiment)): 1100 ± 58 pg/mL
Interleukin 1 beta secreted (donor F262, 24 h, 0.1 μM DBT + SB202190): 134 ± 183 pg/mL
Interleukin 1 beta secreted (donor F262, 24 h, 0.1 μM DBT, no inhibitor (SB202190 experiment)): 1021 ± 61 pg/mL
Interleukin 1 beta secreted (donor F333, 24 h, 0.05 μM DBT + BAY 11-7085): 2518 ± 60 pg/mL
Interleukin 1 beta secreted (donor F333, 24 h, 0.05 μM DBT, no inhibitor (BAY experiment)): 3995 ± 161 pg/mL
Interleukin 1 beta secreted (donor F333, 24 h, 0.1 μM DBT + BAY 11-7085): 1960 ± 102 pg/mL
Interleukin 1 beta secreted (donor F333, 24 h, 0.1 μM DBT, no inhibitor (BAY experiment)): 2755 ± 84 pg/mL
Interleukin 1 beta secreted (donor F334, 24 h, 0.05 μM DBT + BAY 11-7085): 1035 ± 19 pg/mL
Interleukin 1 beta secreted (donor F334, 24 h, 0.05 μM DBT, no inhibitor (BAY experiment)): 2281 ± 53 pg/mL
Interleukin 1 beta secreted (donor F334, 24 h, 0.1 μM DBT + BAY 11-7085): 702 ± 82 pg/mL
Interleukin 1 beta secreted (donor F334, 24 h, 0.1 μM DBT, no inhibitor (BAY experiment)): 1468 ± 94 pg/mL
Interleukin 1 beta secreted (donor F372, 24 h, 0.05 μM DBT + SB202190): 348 ± 198 pg/mL
Interleukin 1 beta secreted (donor F372, 24 h, 0.05 μM DBT, no inhibitor (SB202190 experiment)): 2388 ± 322 pg/mL
Interleukin 1 beta secreted (donor F372, 24 h, 0.1 μM DBT + SB202190): 70 ± 14 pg/mL
Interleukin 1 beta secreted (donor F372, 24 h, 0.1 μM DBT, no inhibitor (SB202190 experiment)): 1985 ± 53 pg/mL
Interleukin 1 beta secreted (donor F385, 24 h, 0.05 μM DBT + SB202190): 65 ± 24 pg/mL
Interleukin 1 beta secreted (donor F385, 24 h, 0.05 μM DBT, no inhibitor (SB202190 experiment)): 1863 ± 83 pg/mL
Interleukin 1 beta secreted (donor F385, 24 h, 0.1 μM DBT, no inhibitor (SB202190 experiment)): 1126 ± 29 pg/mL
